{"source": "paper PMC5551549", "about": "(Endocrinology, 2017)", "key": {"[1]": {"test_system": "human GCGR coexpressed with RAMP2", "assay": "PathHunter β-arrestin recruitment, CHO-K1-βArr-GCGR cells with RAMP2", "format": "cell-based", "details": "90 min, 37°C; PathHunter β-galactosidase complementation; minimum of four separate experiments; Emax P < 0.0001 with vs without RAMP2", "source_text": "PathHunter CHO-K1 GCGR β-Arrestin GPCR assay (DiscoveRx Corporation Ltd.) was used to determine the effect of RAMP2 on the potency of GCGR ligands for recruitment of β-arrestin-1 to the GCGR. The CHO-K1-βArr-GCGR cells are engineered to detect the interaction of β-arrestin with the activated GCGR using β-galactosidase fragment complementation. CHO-K1-βArr-GCGR cells were stably transfected with or without RAMP2, as described previously. […] Fifty-five microliters of the PathHunter detection reagents was added to each well, and the microplate was incubated at room temperature for 60 minutes."}, "[2]": {"test_system": "CHO-K1-GCGR cells + RAMP2", "assay": "cAMP response to forskolin (control), RAMP2-expressing CHO-K1-GCGR cells", "format": "cell-based, Chinese hamster", "details": "mean ± SEM; P = 0.20 vs control cells", "protocol": "(§1) CHO-K1 cells overexpressing the human GCGR (with or without RAMP2), plated onto 48-well plates at 40,000 cells/well, were incubated in serum-free media for 1 hour. Peptides were prepared in serum-free DMEM containing 100 µM of IBMX (3-isobutyl-1-methylxanthine; Sigma-Aldrich, United Kingdom). The cells were incubated for 30 minutes with the test peptide, after which media were replaced with 110 µL lysis buffer (0.1M HCl with 0.5% Triton-X). The lysate was assayed by using a direct cyclic adenosine monophosphate ELISA kit (Enzo Life Sciences, United Kingdom), as described in the assay manual. The cyclic adenosine monophosphate (cAMP) response was corrected for well protein levels (Bradford reagent; Sigma-Aldrich) and expressed as a percentage of response to 10 µM forskolin."}, "CHO-K1-GCGR cells [3]": {"test_system": "CHO-K1-GCGR cells", "assay": "cAMP response to forskolin (control), CHO-K1-GCGR cells", "format": "cell-based, Chinese hamster", "details": "mean ± SEM; P = 0.20 vs RAMP2-expressing cells", "protocol": "as §1"}, "[4]": {"test_system": "CHO-K1-GCGR cells + RAMP2", "assay": "Ca^2+ response to ATP (control), RAMP2-expressing CHO-K1-GCGR cells", "format": "cell-based, Chinese hamster", "details": "mean ± SEM; P = 0.77 vs control cells", "protocol": "(§2) Cells, plated overnight onto 96-well plates at 50,000 cells/well, were incubated in 75 µL Ca NW^PLUS working reagent for 1 hour at 37°C. […] Fluorescence signal was measured from 5 seconds before to 30 seconds after injection of agonist. The Ca^2+ response was expressed as a percentage of the adenosine triphosphate response (1 µM)."}, "CHO-K1-GCGR cells [5]": {"test_system": "CHO-K1-GCGR cells", "assay": "Ca^2+ response to ATP (control), CHO-K1-GCGR cells", "format": "cell-based, Chinese hamster", "details": "mean ± SEM; P = 0.77 vs RAMP2-expressing cells", "protocol": "as §2"}}, "note": "Entries after “also recorded” stand apart in the source; their conditions may differ."}
{"smiles": "CC[C@H](C)[C@H](NC(=O)[C@H](Cc1ccccc1)NC(=O)[C@H](CCC(=O)O)NC(=O)[C@H](CCCCN)NC(=O)[C@H](C)NC(=O)[C@H](C)NC(=O)[C@H](CCC(N)=O)NC(=O)CNC(=O)[C@H](CCC(=O)O)NC(=O)[C@H](CC(C)C)NC(=O)[C@H](Cc1ccc(O)cc1)NC(=O)[C@H](CO)NC(=O)[C@H](CO)NC(=O)[C@@H](NC(=O)[C@H](CC(=O)O)NC(=O)[C@H](CO)NC(=O)[C@@H](NC(=O)[C@H](Cc1ccccc1)NC(=O)[C@@H](NC(=O)CNC(=O)[C@H](CCC(=O)O)NC(=O)[C@H](C)NC(=O)[C@@H](N)Cc1c[nH]cn1)[C@@H](C)O)[C@@H](C)O)C(C)C)C(=O)N[C@@H](C)C(=O)N[C@@H](Cc1c[nH]c2ccccc12)C(=O)N[C@@H](CC(C)C)C(=O)N[C@H](C(=O)N[C@@H](CCCCN)C(=O)NCC(=O)N[C@@H](CCCNC(=N)N)C(N)=O)C(C)C", "note": "[GLP-1]", "values": [{"measurement": "β-arrestin recruitment in cells expressing both GCGR and RAMP2", "setting": "[1]", "result": "did not occur; also recorded: completely abolished"}]}
{"smiles": "C=C[C@@]1(C)CC(=O)[C@]2(O)[C@@]3(C)[C@@H](O)CCC(C)(C)[C@@H]3[C@H](O)[C@H](OC(C)=O)[C@@]2(C)O1", "note": "[forskolin]", "values": [{"measurement": "cAMP response to forskolin, RAMP2-expressing cells", "setting": "[2]", "result": "0.140 ± 0.01", "unit": "relative absorbance units"}, {"measurement": "cAMP response to forskolin, control cells", "setting": "CHO-K1-GCGR cells [3]", "result": "0.136 ± 0.01", "unit": "relative absorbance units"}]}
{"smiles": "Nc1ncnc2c1ncn2[C@@H]1O[C@H](COP(=O)(O)OP(=O)(O)OP(=O)(O)O)[C@@H](O)[C@H]1O", "note": "[ATP, adenosine triphosphate]", "values": [{"measurement": "Ca^2+ response to ATP, RAMP2-expressing cells", "setting": "[4]", "result": "1.84 ± 0.10 relative fluorescence unit fold increase from baseline"}, {"measurement": "Ca^2+ response to ATP, control cells", "setting": "CHO-K1-GCGR cells [5]", "result": "1.81 ± 0.08 relative fluorescence unit fold increase from baseline"}]}
